Reference: US20230047569A1, “PESTICIDAL COMPLEX COMPOSITIONS FOR SYNERGISTIC DELIVERY OF PESTICIDAL ACTIVE INGREDIENTS AND METHODS OF SELECTION THEREOF” (0903608 B.C. Ltd., priority 2019, published 2023)

Columns and labels:
Trichoplusia ni = assay: In-planta insecticidal efficacy on sprayed green cabbage plants (Abbott and Colby formulas); format: in vivo; conditions: 6 days; for Survival Rate (%): Coragen […] (0.104 ppm chlorantraniliprole) and/or aliphatic acid 750 ppm, 10% isopropanol; for Observed Efficacy, W (%): Coragen […] and/or aliphatic acid 750 ppm, Abbott corrected vs 10% isopropanol control
Protocol: Water and 10% isopropanol were tested as control treatments.
Green cabbage plants (Brassica oleracea var. capitate, Danish Ballhead cultivar) were grown from seed (available from West Coast Seeds, Delta, BC, Canada) in potting soil for 4-6 weeks in a pest-free indoor growing environment. At between 4-6 weeks of age, each cabbage plant was sprayed with 20 mL of treatment solution using a pressurized CO2 sprayer from approximately 18 inches above the plant, and allowed to dry.
While for SF<1, antagonism is present and for SF=1, the efficacy of the compounds is merely additive.

[1] = Solubility / effective solubilized concentration in 10% DMSO/90% PDB by HPLC; conditions: working stock: DMSO stock diluted 10-fold in PDB
Protocol: This solution was diluted 10-fold in potato dextrose broth (PDB) to give a concentration of 0.05 mg/mL in 10% DMSO/90% PDB.
Concentrated stock solutions were prepared by dissolving pesticidal active ingredient in 100% dimethylsulfoxide (DMSO), which were then diluted 10-fold in potato dextrose broth (PDB) to give a working stock solution, as described below: […]

SMILES	Survival Rate (%) (Trichoplusia ni)	Observed Efficacy, W (%) (Trichoplusia ni)	effective solubilized concentration [1] [mg/mL]
CCC(C)CCC(=O)O (stereo not shown) [4-methylhexanoic acid]	62.50	2.34	–
CCC(N)C(=O)O (stereo not shown) [2-aminobutyric acid]	58.50	8.59	–
CO/C=C(/C(=O)OC)c1ccccc1Oc1cc(Oc2ccccc2C#N)ncn1 [Azoxystrobin, azoxystrobin]	–	–	0.15
O=C(O)CCCCCCCCCO [10-hydroxydecanoic acid]	40.50	36.72	–
